Like-named read-outs stand apart in the source and are kept apart here. Numbered stars: 1 amine (or outer) side, 2 acyl side, 3 side chain; on linkers, the order of the positions; unused ones are H or OH. Square brackets hold non-standard residues; d marks the D form. Peptide text beside a SMILES is read from it. * marks the point of attachment. C20 diacid = O=C(O)CCCCCCCCCCCCCCCCCCC(=O)*; C18 diacid = O=C(O)CCCCCCCCCCCCCCCCC(=O)*; γGlu = O=C(O)[C@H](CCC(=O)[*:2])N[*:1]; AEEA = NCCOCCOCC(=O)O; Inp = O=C(O)C1CCNCC1
Tests used:
[1] = Animal study: weight change and accumulated food intake in SD rats after subcutaneous dosing; assay type: in vivo, SD (Sprague Dawley) rats; conditions: 10 nmol/kg subcutaneous; for effect on body weight of SD rats: FIGS. 1 and 3; for effect on accumulated food intake of SD rats: FIGS. 2 and 4
From the text: SD (Sprague Dawley) rats weighing 200-250 g were used for this study. The rats were received at least 10-14 days before the study began such that they could accommodate to the experimental environment. After arrival, they were exposed to a reversed light/dark cycle (i.e., lights switched off in daytime and on in nighttime) for two weeks and were individually housed for the first week so as to ensure high data accuracy and test sensitivity. Throughout the acclimation and experiment period, the rats had free access to food and water. 5-8 rats were assigned to each testing group for the derivatives and were subcutaneously administered the derivatives at a dose of 10 nmol/kg or a vehicle (20 mM phosphate buffer, PB, pH 7.0), and the dosing timepoint was recorded for each group. After dosing, the rats were put back into cages where they were housed and could have access to food and water. Food consumption and weight change of the rats were recorded online or manually every 24 hours. Percent of weight change=(BWTn−BWT0)/BWT0*100%, wherein BW represented the value of body weight, and T0 and Tn represented the time point of dosing and n hours post dose respectively. Dots in the figures were represented utilizing mean±standard error of the mean (SEM).

[2] = Heat accelerated stability assay of polypeptide solutions (40° C., pH about 7.4), reversed phase chromatography; assay type: physicochemical; conditions: 40° C.; for Concentration change on 7 d / Concentration change on 26 d: pH about 7.4, 1 mg/mL; for Concentration change on 7 d / Purity change on 7 d: Day 7; for Concentration change on 26 d / Purity change on 26 d: Day 26; for Purity change on 7 d / Purity change on 26 d: reversed phase chromatography 214 nm; for Purity change on 7 d: purity on 7 d − purity on 0 d; for Purity change on 26 d: purity on 26 d − purity on 0 d
Outline: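 Polypeptide derivative lyophilisate (1 mg/mL) with sodium dihydrogen phosphate (1.42 mg/mL) in water, pH about 7.4, sterile-filtered, vialed and held at 40° C; sampled on days 7 and 26. After centrifugation, concentration and purity (target/total peak area) by C18 RP-HPLC, TFA/ACN gradient, 280 and 214 nm.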

[3] = target: T1, calcitonin receptor (hCTR) (Homo sapiens, UniProt P30988); experiment: Calcitonin receptor agonism, CRE-luciferase assay in stably transfected CHO-K1/CALCR/Ga15 cells; assay type: cell-based; conditions: for Fold change in activity against hCTR: relative to D1 as benchmark
T1 construct: host or cells: CHO-K1/CALCR/Ga15 cells, further stably transfected with a CRE-luciferase plasmid
T1 sequence (P30988 25-474): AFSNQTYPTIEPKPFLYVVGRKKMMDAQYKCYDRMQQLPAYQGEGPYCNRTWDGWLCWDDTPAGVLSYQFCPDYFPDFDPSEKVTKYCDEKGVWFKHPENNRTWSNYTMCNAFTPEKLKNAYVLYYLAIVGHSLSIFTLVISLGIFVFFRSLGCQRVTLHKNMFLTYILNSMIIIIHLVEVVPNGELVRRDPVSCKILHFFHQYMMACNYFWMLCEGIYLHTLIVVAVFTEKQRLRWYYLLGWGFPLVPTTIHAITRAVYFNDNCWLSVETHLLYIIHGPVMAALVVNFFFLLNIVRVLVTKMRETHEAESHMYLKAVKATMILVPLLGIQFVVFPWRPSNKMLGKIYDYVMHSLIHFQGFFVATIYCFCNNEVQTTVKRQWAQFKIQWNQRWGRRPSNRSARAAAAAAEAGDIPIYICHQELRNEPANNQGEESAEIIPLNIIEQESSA

amylin receptor (hAMY3R) = target: T2, amylin receptor (hAMY3R) (Homo sapiens, UniProt O60896+P30988); experiment: Amylin receptor agonism testing, CRE-luciferase assay in stably transfected CHO-K1/Ga15/AMY3 cells; assay type: cell-based; conditions: for Fold change in activity against hAMY3R: relative to D1 as benchmark
T2 construct: host or cells: CHO-K1/Ga15/AMY3 cells, further stably transfected with a CRE-luciferase plasmid
T2 sequence (P30988 25-474): T1 sequence (P30988 25-474)
T2 sequence (O60896 24-148): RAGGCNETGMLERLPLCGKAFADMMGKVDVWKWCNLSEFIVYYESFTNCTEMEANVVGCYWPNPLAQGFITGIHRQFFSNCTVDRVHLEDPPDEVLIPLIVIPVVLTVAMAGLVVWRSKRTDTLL

[4] = incubation of 24 hours, Table 4, read-out: EC50, activity against the calcitonin receptor in cells
[5] = incubation of 24 hours, Table 3, read-out: EC50, activity against the amylin receptor in cells

Question: With `CC(C)C[C@H](NC(=O)[C@H](CCCNC(=N)N)NC(=O)CNC(=O)[C@H](CC(C)C)NC(=O)[C@@H](NC(=O)[C@H](C)NC(=O)[C@@H](NC(=O)[C@H](CO)NC(=O)[C@H](CC(C)C)NC(=O)[C@H](CCC(N)=O)NC(=O)[C@H](CO)NC(=O)[C@H](C)NC(=O)COCCOCCNC(=O)COCCOCCNC(=O)CC[C@H](NC(=O)CCCCCCCCCCCCCCCCCCC(=O)O)C(=O)O)[C@@H](C)O)C(C)C)C(=O)N[C@@H](CO)C(=O)N[C@@H](CC(=O)O)C(=O)N[C@@H](CCC(=O)O)C(=O)N[C@@H](CC(C)C)C(=O)N[C@@H](Cc1c[nH]cn1)C(=O)N[C@@H](CCCNC(=N)N)C(=O)N[C@@H](CC(C)C)C(=O)N[C@@H](CCC(N)=O)C(=O)N[C@@H](CC(=O)O)C(=O)N[C@@H](Cc1ccc(O)cc1)C(=O)N1CCC[C@H]1C(=O)N[C@@H](CCCNC(=N)N)C(=O)N[C@H](C(=O)N[C@@H](CC(=O)O)C(=O)N[C@H](C(=O)NCC(=O)N[C@@H](CO)C(=O)NCC(=O)N[C@@H](CO)C(=O)N1CCC[C@H]1C(N)=O)C(C)C)[C@@H](C)O` [M18] ({C20 diacid-γGlu-AEEA-AEEA}-ASQLSTAVLGRLSDELHRLQDYPRTDVGSGSP-NH2) as the compound, how does the “effect on body weight of SD rats” value [1] read?
Answer: apparently further reduced

Question: What about the “effect on accumulated food intake of SD rats” value [1] of the same compound?
Answer: apparently further reduced

Question: What about the “Concentration change on 7 d” value [2] of the same compound?
Answer: No change (concentration change of less than 1% (denoted as “no change”))

Question: What about the “Concentration change on 26 d” value [2] of the same compound?
Answer: −1.148%

Question: And the “Purity change on 7 d” value [2]?
Answer: No change

Question: What about the “Purity change on 26 d” value [2] of the same compound?
Answer: nearly no noticeable change in purity

Question: And the EC50 [3, 4]?
Answer: 69 pM

Question: And the “Fold change in activity against hCTR” value [3]?
Answer: 1.246

Question: What about the EC50 (amylin receptor (hAMY3R); Table 5 integrated analysis, read-out: hAMY3R EC50) of the same compound?
Answer: 16 pM

Question: And the “Fold change in activity against hAMY3R” value (amylin receptor (hAMY3R))?
Answer: 2.25

Question: Which “effect on body weight of SD rats” value [1] does the source give for `CC(C)C[C@H](NC(=O)[C@H](CCCNC(=N)N)NC(=O)CNC(=O)[C@H](CC(C)C)NC(=O)[C@@H](NC(=O)[C@H](C)NC(=O)[C@@H](NC(=O)[C@H](CO)NC(=O)[C@H](CC(C)C)NC(=O)[C@H](CCC(N)=O)NC(=O)[C@H](CO)NC(=O)[C@H](C)NC(=O)COCCOCCNC(=O)COCCOCCNC(=O)[C@H](CCC(=O)O)NC(=O)CCCCCCCCCCCCCCCCCCC(=O)O)[C@@H](C)O)C(C)C)C(=O)N[C@@H](CO)C(=O)N[C@@H](CC(=O)O)C(=O)N[C@@H](CCC(=O)O)C(=O)N[C@@H](CC(C)C)C(=O)N[C@@H](Cc1c[nH]cn1)C(=O)N[C@@H](CCCNC(=N)N)C(=O)N[C@@H](CC(C)C)C(=O)N[C@@H](CCC(N)=O)C(=O)N[C@@H](CC(=O)O)C(=O)N[C@@H](Cc1ccc(O)cc1)C(=O)N1CCC[C@H]1C(=O)N[C@@H](CCCNC(=N)N)C(=O)N[C@H](C(=O)N[C@@H](CC(=O)O)C(=O)N[C@H](C(=O)NCC(=O)N[C@@H](CO)C(=O)NCC(=O)N[C@@H](CO)C(=O)N1CCC[C@H]1C(N)=O)C(C)C)[C@@H](C)O` [M23] ({C20 diacid}-E[AEEA][AEEA]ASQLSTAVLGRLSDELHRLQDYPRTDVGSGSP-NH2) here?
Answer: apparently further reduced

Question: What about the “effect on accumulated food intake of SD rats” value [1] of the same compound?
Answer: apparently further reduced

Question: And the “Concentration change on 26 d” value [2]?
Answer: −7.782%

Question: What about the “Purity change on 7 d” value [2] of the same compound?
Answer: No change

Question: What about the “Purity change on 26 d” value [2] of the same compound?
Answer: nearly no noticeable change in purity

Question: What about the EC50 (amylin receptor (hAMY3R); [5]) of the same compound?
Answer: 17 pM

Question: With `CC(C)C[C@H](NC(=O)[C@H](CCCNC(=N)N)NC(=O)CNC(=O)[C@H](CC(C)C)NC(=O)[C@@H](NC(=O)[C@H](C)NC(=O)[C@@H](NC(=O)[C@H](CO)NC(=O)[C@H](CC(C)C)NC(=O)[C@H](CCC(N)=O)NC(=O)[C@H](CO)NC(=O)[C@H](C)NC(=O)COCCOCCNC(=O)COCCOCCNC(=O)[C@H](CC(=O)O)NC(=O)CCCCCCCCCCCCCCCCC(=O)O)[C@@H](C)O)C(C)C)C(=O)N[C@@H](CO)C(=O)N[C@@H](CC(=O)O)C(=O)N[C@@H](CCC(=O)O)C(=O)N[C@@H](CC(C)C)C(=O)N[C@@H](Cc1c[nH]cn1)C(=O)N[C@@H](CCCNC(=N)N)C(=O)N[C@@H](CC(C)C)C(=O)N[C@@H](CCC(N)=O)C(=O)N[C@@H](CC(=O)O)C(=O)N[C@@H](Cc1ccc(O)cc1)C(=O)N1CCC[C@H]1C(=O)N[C@@H](CCCNC(=N)N)C(=O)N[C@H](C(=O)N[C@@H](CC(=O)O)C(=O)N[C@H](C(=O)NCC(=O)N[C@@H](CO)C(=O)NCC(=O)N[C@@H](CO)C(=O)N1CCC[C@H]1C(N)=O)C(C)C)[C@@H](C)O` [M26] ({C18 diacid}-D[AEEA][AEEA]ASQLSTAVLGRLSDELHRLQDYPRTDVGSGSP-NH2) as the compound, how does the “Concentration change on 7 d” value [2] read?
Answer: −2.402%

Question: What about the “Concentration change on 26 d” value [2] of the same compound?
Answer: −2.235%

Question: And the “Purity change on 7 d” value [2]?
Answer: −2.39%

Question: And the “Purity change on 26 d” value [2]?
Answer: −2.68%

Question: And the EC50 [3, 4]?
Answer: 24 pM

Question: What about the EC50 (amylin receptor (hAMY3R); [5]) of the same compound?
Answer: 8 pM

Question: With `CC(C)C[C@H](NC(=O)[C@H](CCCNC(=N)N)NC(=O)CNC(=O)[C@H](CC(C)C)NC(=O)[C@@H](NC(=O)[C@H](C)NC(=O)[C@@H](NC(=O)[C@H](CO)NC(=O)[C@H](CC(C)C)NC(=O)[C@H](CCC(N)=O)NC(=O)[C@H](CO)NC(=O)[C@H](C)NC(=O)COCCOCCNC(=O)COCCOCCNC(=O)C1CCN(C(=O)CCCCCCCCCCCCCCCCC(=O)O)CC1)[C@@H](C)O)C(C)C)C(=O)N[C@@H](CO)C(=O)N[C@@H](CC(=O)O)C(=O)N[C@@H](CCC(=O)O)C(=O)N[C@@H](CC(C)C)C(=O)N[C@@H](Cc1c[nH]cn1)C(=O)N[C@@H](CCCNC(=N)N)C(=O)N[C@@H](CC(C)C)C(=O)N[C@@H](CCC(N)=O)C(=O)N[C@@H](CC(=O)O)C(=O)N[C@@H](Cc1ccc(O)cc1)C(=O)N1CCC[C@H]1C(=O)N[C@@H](CCCNC(=N)N)C(=O)N[C@H](C(=O)N[C@@H](CC(=O)O)C(=O)N[C@H](C(=O)NCC(=O)N[C@@H](CO)C(=O)NCC(=O)N[C@@H](CO)C(=O)N1CCC[C@H]1C(N)=O)C(C)C)[C@@H](C)O` [M30] ({C18 diacid-Inp-AEEA-AEEA}-ASQLSTAVLGRLSDELHRLQDYPRTDVGSGSP-NH2) as the compound, how does the “Concentration change on 26 d” value [2] read?
Answer: −5.268%

Question: What about the “Purity change on 7 d” value [2] of the same compound?
Answer: No change

Question: What about the “Purity change on 26 d” value [2] of the same compound?
Answer: −4.34%

Question: And the EC50 ([3]; Table 5 integrated analysis, read-out: hCTR EC50)?
Answer: 101 pM

Question: What about the “Fold change in activity against hCTR” value [3] of the same compound?
Answer: 0.848

Question: And the “increase in agonistic activity against the amylin receptor” value (amylin receptor (hAMY3R); compared with M17)?
Answer: ~70 folds

Question: What about the EC50 (amylin receptor (hAMY3R); [5]) of the same compound?
Answer: 1 pM

Question: What about the “Fold change in activity against hAMY3R” value (amylin receptor (hAMY3R)) of the same compound?
Answer: 36.000

Question: And the “increase in the ratio of activity against the amylin receptor to agonistic activity against the calcitonin receptor” value (amylin receptor (hAMY3R); relative to the benchmark D1)?
Answer: about 42.5 fold
